Test results: ChEMBL document CHEMBL1201862, “PubChem BioAssay data set” (2004)
Activity calls are given as the source filed them.

What was measured:
[1] = tested on: Streptococcus sp. 'group A'; experiment: Streptococcus pyogenes SK(-)GAS viability under kanamycin – luminescence, BacTiterGlo, confirmation, counter-screen for streptokinase expression inhibitor project, dose response (AID 1900); type: functional, organism-based
[2] = microbe, parasite or virus in culture; type: functional; details: Mycobacterium tuberculosis
[3] = tested on: Streptococcus; experiment: GAS UMAA2166 growth inhibition – luminescence, BacTiterGlo, counter-screen for streptokinase expression inhibitor project, dose response (AID 1915); type: functional, organism-based;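 further: potency for reduction of bacterial viability or growth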
[4] = molecular target: Neurotensin receptor type 1 (Homo sapiens, UniProt P30989); type: functional;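 further: Image-based confirmatory dose-response assay measuring agonist activity at NTR1; NTR1-expressing U2OS osteosarcoma cells imaged for beta-arrestin GFP spot formation; agonist potency where compounds increase beta-arrestin recruitment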
Sequence of Neurotensin receptor type 1 (P30989 whole entry): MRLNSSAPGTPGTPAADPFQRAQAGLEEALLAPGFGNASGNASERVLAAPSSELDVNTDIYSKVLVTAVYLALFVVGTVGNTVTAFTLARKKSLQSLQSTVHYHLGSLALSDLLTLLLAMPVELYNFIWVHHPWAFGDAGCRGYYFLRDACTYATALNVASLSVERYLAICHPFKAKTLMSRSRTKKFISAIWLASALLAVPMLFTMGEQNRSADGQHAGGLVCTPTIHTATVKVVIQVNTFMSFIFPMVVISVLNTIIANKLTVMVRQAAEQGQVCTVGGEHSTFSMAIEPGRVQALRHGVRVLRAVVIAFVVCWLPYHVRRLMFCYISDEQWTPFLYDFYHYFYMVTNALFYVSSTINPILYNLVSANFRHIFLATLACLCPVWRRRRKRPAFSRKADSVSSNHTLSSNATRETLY

C/C(=N/Nc1cc(-c2ccccc2)nc(-c2ccccc2)n1)c1ccc(O)cc1
active: EC50 [1] 1.52 µM | CC50 [2] 18.2 µM | EC50 [3] 1.56 µM | EC50 [4] 15.9 µM
